Laboratory results as given in patent publication US5093505A, “Novel heterocyclic compound, carcinostatic agent, and carcinoma controlling method” (Wakunaga Seiyaku Kabushiki Kaisha, priority 1989, dated 1992).
Like-named read-outs stand apart in the source and are kept apart here.

Columns and labels:
[1] = Solubility of compound (1); format: physicochemical
in vivo [2] = assay: in vivo; design: species or system rats; conditions: rat, po
in vivo [3] = assay: in vivo; design: species or system mice; conditions: mouse, po
HeLa cells = assay: Anti-carcinogenesis-promoter action: inhibition of TPA-promoted phospholipid synthesis (32Pi uptake) in HeLa cells; format: cell-based; conditions: Homo sapiens, read-out: Inhibition (%) of cell phospholipid synthesis promotion by TPA
Protocol: A sample (50 μg/ml) was added to HeLa cells on the second day of cultivation. After 24 hours, TPA (5×10^-8 M) and ^32 Pi (50 μci/culture) were added at the same time. After 4 hours, a phospholipid fraction was extracted to determine the radioactivity of ^32 Pi taken in the fraction.

[4] = system: mouse skin two-stage carcinogenesis; assay: Inhibition of promotion stage of mouse skin in vivo two-stage carcinogenesis (DMBA/TPA); design: species or system ICR female mice; conditions: 1 mg applied, twice a week, 1 μg TPA
Protocol: A compound was examined whether it could inhibit the promotion stage of mouse skin in vivo two-stage carcinogenesis. More particularly, a group of 15 ICR female mice was tested by once applying 100 μg of DMBA as an initiator to the skin of each mouse for initiation of carcinogenesis and then applying a test solution (identified below) twice a week. Inhibition of carcinogenesis was examined during the test which continued for 18 weeks in total. The promoter used was TPA.
1 mg of compound (1) applied

[5] = system: gastric carcinoma cells HGC-27; assay: Inhibition against gastric carcinoma cells with time; format: cell-based; conditions: 25 μg/ml, number of cells with time
Protocol: In a dish having a diameter of 3.5 cm, about 2×10^4 gastric carcinoma cells HGC-27 were spread and cultured. After one day, compound (1) was added to the culture in a concentration of 25 μg/ml and the number of cells was counted with the lapse of time. The results are shown in FIG. 5 in which the number of cells is plotted relative to the culturing time.

[6] = system: gastric carcinoma cells HGC-27; assay: Inhibition against gastric carcinoma cells in varying concentrations; format: cell-based; conditions: two days
Protocol: In a dish having a diameter of 3.5 cm, about 2×10^5 gastric carcinoma cells HGC-27 were spread and cultured. After one day, compound (1) was added to the culture in varying concentrations of 5, 10, 25, 50, and 75 μg/ml. The number of cells was counted after two days. The results are shown in FIG. 6 in which the number of cells is plotted relative to the concentration of compound (1).

[7] = system: pancreatic carcinoma cells PANC-1; assay: Inhibition against other carcinoma cells: PANC-1; format: cell-based, human; conditions: PANC-1, 50 μg/ml
Protocol: (§1) Tested were three types of human carcinoma cells, pancreatic carcinoma cells PANC-1, cervical carcinoma cells HeLa, and neuroblastoma cells GOTO. For each type, about 2×10^5 cells were spread and cultured in a dish having a diameter of 3.5 cm. After one day, compound (1) was added to the culture in a concentration of 50 μg/ml. The number of cells was counted after two days.

[8] = system: cervical carcinoma cells HeLa; assay: Inhibition against other carcinoma cells: HeLa; format: cell-based, human; conditions: 50 μg/ml
Protocol: as §1

neuroblastoma cells GOTO = assay: Inhibition against other carcinoma cells: GOTO; format: cell-based, human; conditions: 50 μg/ml
Protocol: as §1

[9] = sample 50 μg/ml, TPA 5×10^-8 M, HeLa cells
[10] = Homo sapiens, 48 h, two days, read-out: Number of cells, Test group/Control

Compound: CCCCCc1oc(C)c(OC)c(=O)c1O [Compound (1), 3-hydroxy-6-methyl-5-methoxy-2-pentyl-4H-pyran-4-one]
- solubility in organic solvents ([1]; methanol, acetone, chloroform, hexane, and ethyl acetate): soluble
- solubility in water ([1]; water): difficultly soluble
- LD50 (in vivo [2]): ≥ 1000 mg/kg
- LD50 (in vivo [3]): ≥ 1000 mg/kg
- inhibition at 50 µg/mL (HeLa cells; [9]): 83%
- average number of carcinomas per mouse ([4]; 18th week (control 2.38)): 0.22
- percentage of mice in which carcinomas developed ([4]; 18th week (control 50%)): 13%
- inhibition of propagation of gastric carcinoma cells HGC-27 [5]: fully effective in inhibiting the propagation
- concentration dependence of inhibitory effect on gastric carcinoma cells HGC-27 ([6]; 5, 10, 25, 50, and 75 μg/ml): dependent on its concentration or dose
- minimal effective concentration ([6]; Homo sapiens, HGC-27, 48 h, 5 to 75 μg/ml, read-out: concentration with significant inhibitory effect on gastric carcinoma cells HGC-27): ≤ 5 µg/mL
- activity at 50 µg/mL [7, 10]: 27.3%
- Number of cells (×10^5), Test group ([7]; two days (control 8.95)): 2.45 ×10^5
- Number of cells (×10^5), Test group ([8]; two days (control 11.20)): 4.70 ×10^5
- activity at 50 µg/mL [8, 10]: 42%
- Number of cells (×10^5), Test group (neuroblastoma cells GOTO; two days (control 10.95)): 4.85 ×10^5
- activity at 50 µg/mL (neuroblastoma cells GOTO; Homo sapiens, Neuroblastoma cell, 48 h, two days, read-out: Number of cells, Test group/Control): 44.3%

Compound: CCCCCc1oc(C)c(OC)c(=O)c1OC [Compound (2), 6-methyl-3,5-dimethoxy-2-pentyl-4H-pyran-4-one]
- inhibition at 50 µg/mL (HeLa cells; [9]): 65.3%

Compound: CCCCCc1oc(C)c(OC)c(=S)c1O [Compound (3), 3-hydroxy-6-methyl-5-methoxy-2-pentyl-4H-pyran-4-thione]
- inhibition at 50 µg/mL (HeLa cells; [9]): 75%

Compound: CCCCCC1=NC(C)=C(OC)C(=O)C1O (stereo not drawn) [Compound (4), 3-hydroxy-6-methyl-5-methoxy 2-pentyl-4-pyridone]
- inhibition at 50 µg/mL (HeLa cells; [9]): 51.2%

Compound: CCCCCc1c(O)c(=O)c(OC)c(C)n1C [Compound (5), 3-hydroxy-1,6-dimethyl-5-methoxy 2-pentyl-4-pyridone]
- inhibition at 50 µg/mL (HeLa cells; [9]): 24.9%

Compound: CCCCCc1c(O)c(=S)c(OC)c(C)n1C [Compound (7), 3-hydroxy-1,6-dimethyl-5-methoxy-2-pentyl 4-pyridinethione]
- inhibition at 50 µg/mL (HeLa cells; [9]): 70.6%

Compound: Cc1occc(=O)c1O [Compound (8), 3-hydroxy-2-methyl 4H-pyran-4-one]
- inhibition at 50 µg/mL (HeLa cells; [9]): 3.1%

Compound: Cc1occc(=S)c1O [Compound (9), 3-hydroxy-2-methyl-4H-pyran-4-thione]
- inhibition at 50 µg/mL (HeLa cells; [9]): 0%

Compound: O=c1cc(C=Cc2ccccc2)occ1O [Compound (10), 3-hydroxy-6-styryl-4H-pyran-4-one]
- inhibition at 50 µg/mL (HeLa cells; [9]): 59.3%

Compound: COc1ccc(C=Cc2cc(=O)c(O)co2)cc1 [Compound (11), 3-hydroxy-6-(p-methoxystyryl)-4H-pyran-4-one]
- inhibition at 50 µg/mL (HeLa cells; [9]): 72.2%

Compound: O=c1cc(C=Cc2ccc(Cl)cc2)occ1O [Compound (12), 3-hydroxy-6-(p-chlorostyryl)-4H-pyran-4-one]
- inhibition at 50 µg/mL (HeLa cells; [9]): 90%

Compound: O=c1cc(CO)occ1O [Compound (13), 5-hydroxy-2-hydroxymethyl-4H-pyran-4-one]
- inhibition at 50 µg/mL (HeLa cells): 1.6%
